In patent publication US9243278B2, “Mechanotransduction by the synergistic action of heterotypic cell interactions” (Brown University, priority 2011, dated 2016):
“Also recorded” adds a separate entry of the source.

Columns and labels:
[1] = test system: 1:1 (NHF:H35) microtissues; details: cultured four hours, then overnight at 37° C. in 5 mM EDTA in PBS
Description: To determine if extracellular calcium disintegrated the microtissues, 1:1 (NHF: H35) microtissues were cultured for 4 hours. Culture media was removed, and microtissues were washed with PBS, and then incubated overnight at 37° C. in 5 mM EDTA in PBS. Control samples were kept in regular culture media or PBS.
To examine if enhanced power was transduced through cell-cell interactions 1:1 (NHF:H35) were cultured for four hours and then incubated in EDTA to destabilize the calcium dependent cell-cell adhesions. Control samples were kept in regular culture media or PBS.

[2] = test system: normal human fibroblasts (NHF); assay: toroid-on-cone cell power assay, homotypic NHF toroids; format: cell-based
Description: (§1) Toroid molds suitable for side view microcopy were designed as previously described (9). Toroid molds were designed using the computer aided design (CAD) software Solid Works (Solid Works Corporation, Concord, Mass., USA). The mold was designed with 12 features to create wells. Each feature is a rounded edged (350 μm in diameter) cylinder (1.1 mm) with a cone indent in the center. The slope of the central cone was 65° and it is 650 μm in diameter. CAD files were used to produce thermowax molds with a rapid prototyping machine (3D Systems Corporation, Valencia, Calif.).
(§2) Wax molds were used to cast 13% polyacrylamide gels. Gels were removed from wax molds and transferred to six well culture plates. Each of the resulting wells is a circular trough confined by the hydrogel wall at the outer edge of the trough and by a conical peg on the inner edge of the trough. The gels were rinsed with fresh culture medium and then equilibrated overnight at 37° C. in 4 ml of DMEM supplemented with 1% penicillin/streptomycin (pen/strep). After equilibration, the medium was removed, and the gels were rinsed with fresh medium.
NHFs (passage 4-10), derived from neonatal foreskins, and H35s (passage 5-11) were grown in T-175 flasks in DMEM with 10% FBS and 1% pen/strep at 37° C. and 10% CO2. Cells were removed from flasks using a standard trypsin process. Briefly, cells were exposed to 0.05% trypsin for 10 minutes, quenched with serum containing medium, spun down at 800 rpm for 6 minutes, resuspended in a known volume of medium, and counted using a hemocytometer. Cell solution (70 μl) was added to each hydrogel. After 30 minutes, 4 ml of fresh medium was added to each of the wells. After seeding, images of the samples were taken every 2 hours for about 8 hours. Pure NHF microtissues were seeded with about 10,500, about 21,000, about 25,000 or about 35,000 cells/well. Heterotypic microtissues were seeded at ratios of about 1:1, about 2:3, about 1:4; about 1:6, about 1:10, about 1:16, and about 1:20 (NHF:H35). The seeding per well for heterotypic samples was kept constant at about 21,000 cells/well. For TGF-β1 experiments, NHFs and H35s were incubated for 48 hours in DMEM with 10% FBS, 1% penn/strep and 5 ng/ml human recombinant TGF-β1 (Invitrogen, Carlsbad, Calif., USA), passed according to standard protocol, and seeded at about 21,000 cells/well. NHFs^TGF-β1 coseeded with H35s were seeded in DMEM with 10% FBS, 1% penn/strep without additional TGF-β1. […]
(§3) Convential view fluorescent and phase images were captured using Carl Zeiss Axio Observer Z1 with an AxioCam Mrm camera (Carl Zeiss MicroImaging, Thornwood, N.Y., USA). To capture side view images, a Mitutoyo FS-110 microscope was modified to lie on its back and a translational stage was added to hold samples. Samples were imaged in bright field through the eyepiece of the microscope. ImageJ Software (NIH Rasband, W.S. USA) was used to measure the height of the toroid, the major radius, and the minor radius of the toroid.
(§4) The range of power exerted by increasing numbers of NHFs (>3 fold) in a homotypic environment by seeding the cells into non-adhesive hydrogels with toroid recesses, each with a central cone (65° slope) was measured. Cells settled and formed cell-cell adhesions that drove the toroid shaped microtissue up the cone. The power necessary to move the NHF toroid up the cone as P=ΔW/Δt was calculated, where ΔW is work performed against gravity to move a toroid of a known mass to a given height, and Δt is the time over which the work is performed (9). […] Toroid power increased linearly as cell number increased, but power per NHF (cell power) was independent of cell number, with a peak cell power of 0.22±0.02 fJ/hr (2 hrs) and an average cell power (over all time points) of 0.16±0.03 fJ/hr.

[3] = test system: heterotypic toroids of NHFs and H35s; assay: toroid-on-cone cell power assay, heterotypic NHF:H35 toroids; format: cell-based, human, rat
Description: as §1, §2
(§5) NHFs (passage 4-10), derived from neonatal foreskins, and H35s (passage 5-11) were grown in T-175 flasks in DMEM with 10% FBS and 1% pen/strep at 37° C. and 10% CO2. Cells were removed from flasks using a standard trypsin process. Briefly, cells were exposed to 0.05% trypsin for 10 minutes, quenched with serum containing medium, spun down at 800 rpm for 6 minutes, resuspended in a known volume of medium, and counted using a hemocytometer. Cell solution (70 μl) was added to each hydrogel. After 30 minutes, 4 ml of fresh medium was added to each of the wells. After seeding, images of the samples were taken every 2 hours for about 8 hours. Pure NHF microtissues were seeded with about 10,500, about 21,000, about 25,000 or about 35,000 cells/well. Heterotypic microtissues were seeded at ratios of about 1:1, about 2:3, about 1:4; about 1:6, about 1:10, about 1:16, and about 1:20 (NHF:H35). The seeding per well for heterotypic samples was kept constant at about 21,000 cells/well. For TGF-β1 experiments, NHFs and H35s were incubated for 48 hours in DMEM with 10% FBS, 1% penn/strep and 5 ng/ml human recombinant TGF-β1 (Invitrogen, Carlsbad, Calif., USA), passed according to standard protocol, and seeded at about 21,000 cells/well. NHFs^TGF-β1 coseeded with H35s were seeded in DMEM with 10% FBS, 1% penn/strep without additional TGF-β1.
as §3, §4
The data shown in Table 1 show heterotypic toroids have enhanced power. […]

NHFs and H35s = assay: self-sorting of fluorescently labeled NHFs and H35s in microtissues; format: cell-based, human, rat
Description: For sorting experiments, NHFs and H35s were incubated with 2.5 μM CellTracker™ Red CMPTX and CellTracker™ Green CMFDA™ (Invitrogen, Carlsbad, Calif., USA), respectively, in serum free media for 30 minutes. After incubation, the dye was aspirated and the cells equilibrated in serum media for 1 hour prior to passing. For NHF^TGF-β1:H35 sorting experiments NHFs were incubated for 48 hours in DMEM with 10% FBS, 1% penn/strep and 5 ng/ml TGF-β1. After incubation the NHF^TGF-β1 and H35s were fluorescently labeled and passed as previously described.
as §3, with “ImageJ Software (NIH Rasband, W.S. USA) was used to measure the height of the toroid, the major radius, and the minor radius of the toroid.” left out
Using self sorting to identify drugs, TGF-β1 is a growth factor linked to fibrosis and well known for its ability to increase cell mediated contraction and synthesis of extracellular matrix proteins such as collagen. […] Also, as self-sorting proceeds the quantity of heterotypic interface decreases and the homotypic interface increases as cells partition. […]

[4] = test system: rat hepatocyte cell line (H35); assay: toroid-on-cone cell power assay, homotypic H35 toroids; format: cell-based
Description: as §1, §2, §5
To investigate the effect of paracrine factors, media from homotypic toroids containing about 10,500 H35s and from homotypic toroids containing about 10,500 NHFs was collected. The conditioned media was seeded about 10,500 NHFs with the media collected from the H35s and also seeded about 10,500 H35s with the media collected from the NHFs. Power was analyzed at four hours since this is the time enhanced power for heterotypic toroids which contained about 10,500 H35s and about 10,500 NHFs (1:1 samples).
Convential view fluorescent and phase images were captured using Carl Zeiss Axio Observer Z1 with an AxioCam Mrm camera (Carl Zeiss MicroImaging, Thornwood, N.Y., USA). To capture side view images, a Mitutoyo FS-110 microscope was modified to lie on its back and a translational stage was added to hold samples. […]
The range of power exerted by increasing numbers of NHFs (>3 fold) in a homotypic environment by seeding the cells into non-adhesive hydrogels with toroid recesses, each with a central cone (65° slope) was measured. […]

[5] = homotypic toroid 100% NHF^TGF-β
[6] = H35^TGF-β1 homotypic toroid, 24 hours

O=C(O)CN(CCN(CC(=O)O)CC(=O)O)CC(=O)O [EDTA]
microtissue integrity [1]: disintegrated into monodispersed cells

transforming growth factor-β1 [TGF-β1]
height of the NHF^TGF-β1 toroid relative to untreated NHFs ([2]; 2 hours, NHFs treated 48 hours in 5 ng/ml TGF-β1): twice as far; also recorded: increased two fold | average cell power ([2]; NHF^TGF-β1): 0.16 ± 0.21 fJ/h | peak cell power ([2]; NHF^TGF-β1, 2 hrs): 0.47 fJ/h | Toroid Power ([2]; NHF^TGF-β1 homotypic toroid, two hours): 9.82 ± 1.32 pJ/h | increase in NHF cell power in the homotypic environment ([2]; TGF-β treatment alone): about 1.9 fold | change in NHF cell power relative to untreated controls (in words) ([2]; homotypic NHF toroids treated with TGF-β1): doubling in cell power; also recorded: increased only two fold; also recorded: doubled; also recorded: doubles cell power | Enhancement in NHF Cell Power [2, 5]: 0.23 fJ/hr/NHF | Toroid Power [2, 5]: 9.80 pJ/h | Enhancement in Toroid Power ([2]; homotypic toroid 100% NHF^TGF-β versus control): 4.7 pJ/h | Fold Increase in NHF Cell Power ([2]; homotypic toroid 100% NHF^TGF-β, effects of TGF-β alone): 1.9x | H35 has Enhanced Power ([3]; 1:1 (NHF^TGF-β:H35)): 0.11 fJ/hr per H35 | NHF has Enhanced Power ([3]; 1:1 (NHF^TGF-β:H35)): 0.58 fJ/hr per NHF | Relative Increase in NHF Cell Power ([3]; 1:1 (NHF^TGF-β:H35)): 2.4x | Measured Toroid Power ([3]; 1:1 (NHF^TGF-β:H35), at time of peak power, NHFs pretreated 48 hours with 5 ng/ml TGF-β1): 6.05 pJ/h | Enhanced Toroid Power ([3]; 1:1 (NHF^TGF-β:H35), measured minus projected): 1.16 pJ/h | Projected Toroid Power ([3]; 1:1 (NHF^TGF-β:H35), power per TGF-β treated NHF x number of NHFs): 4.90 pJ/h | toroid height relative to respective control ([3]; 1:1 NHF^TGF-β1 mixed with untreated H35s): 1.4 times | Enhanced Toroid Power ([3]; 1:10 (NHF^TGF-β:H35)): 4.41 pJ/h | H35 has Enhanced Power ([3]; 1:10 (NHF^TGF-β:H35)): 0.23 fJ/hr per H35 | NHF has Enhanced Power ([3]; 1:10 (NHF^TGF-β:H35)): 5.30 fJ/hr per NHF | Projected Toroid Power ([3]; 1:10 (NHF^TGF-β:H35)): 0.89 pJ/h | Relative Increase in NHF Cell Power ([3]; 1:10 (NHF^TGF-β:H35)): 22.1x | Measured Toroid Power ([3]; 1:10 (NHF^TGF-β:H35), peak power, combination of 6 and 8 hours): 5.30 pJ/h | toroid height relative to respective control ([3]; 1:10 NHF^TGF-β1 mixed with untreated H35s): 4.4 times | Enhanced Toroid Power ([3]; 1:20 (NHF^TGF-β:H35)): 3.63 pJ/h | H35 has Enhanced Power ([3]; 1:20 (NHF^TGF-β:H35)): 0.18 fJ/hr per H35 | NHF has Enhanced Power ([3]; 1:20 (NHF^TGF-β:H35)): 4.13 fJ/hr per NHF | Projected Toroid Power ([3]; 1:20 (NHF^TGF-β:H35)): 0.47 pJ/h | Relative Increase in NHF Cell Power ([3]; 1:20 (NHF^TGF-β:H35)): 17.2x | Measured Toroid Power ([3]; 1:20 (NHF^TGF-β:H35), at time of peak power): 4.10 pJ/h | toroid height relative to respective control ([3]; 1:20 NHF^TGF-β1 mixed with untreated H35s): 6.3 times | Enhancement in NHF Cell Power ([3]; 5%:95% (NHF^TGF-β:H35)): 4.13 fJ/hr/NHF | Enhancement in Toroid Power ([3]; 5%:95% (NHF^TGF-β:H35)): 3.63 pJ/h | Fold Increase in NHF Cell Power ([3]; 5%:95% (NHF^TGF-β:H35)): 17.2x | Toroid Power ([3]; 5%:95% (NHF^TGF-β:H35)): 4.10 pJ/h | Enhancement in NHF Cell Power ([3]; 10%:90% (NHF^TGF-β:H35)): 5.30 fJ/hr/NHF | Enhancement in Toroid Power ([3]; 10%:90% (NHF^TGF-β:H35)): 4.41 pJ/h | Toroid Power ([3]; 10%:90% (NHF^TGF-β:H35)): 5.30 pJ/h | Fold Increase in NHF Cell Power ([3]; 10%:90% (NHF^TGF-β:H35), effects of TGF-β & hetero environment): 22.1x | Enhancement in NHF Cell Power ([3]; 50%:50% (NHF^TGF-β:H35)): 0.58 fJ/hr/NHF | Enhancement in Toroid Power ([3]; 50%:50% (NHF^TGF-β:H35)): 1.16 pJ/h | Fold Increase in NHF Cell Power ([3]; 50%:50% (NHF^TGF-β:H35)): 2.4x | Toroid Power ([3]; 50%:50% (NHF^TGF-β:H35)): 6.05 pJ/h | total cell power ([3]; NHF^TGF-β1, about 1:10 mix, between four and eight hours): 5.3 ± 1.32 fJ/h | peak cell power ([3]; NHF^TGF-β1, about 1:20 mix): 4.13 ± 1.22 fJ/h | increase in cell power, heterotypic environment and TGF-β1 ([3]; TGF-β1 treated NHFs with untreated H35s, enhanced power distributed to NHFs): 22 × | increase in cell power, TGF-β1 treatment in conjunction with the heterotypic environment ([3]; compared to untreated NHFs in a homotypic toroid): greater than 22 times | increase in NHF cell power, TGF-β1 treatment combined with heterotypic environment ([3]; compared to untreated NHFs in homotypic toroid, 10% NHFs: 90% H35s): about 22.1 fold | increase of NHF^TGF-β1 cell power in the heterotypic environment ([3]; versus NHF^TGF-β1 in homotypic environment): greater than 11 times | self-sorting of NHFs and H35s in heterotypic toroids (NHFs and H35s; NHF^TGF-β1:H35 toroids (1:10), up to 24 hours): prevented sorting; also recorded: reduced; also recorded: sorting was eliminated | self-sorting of NHFs and H35s in spheroids (NHFs and H35s; mixes (1:1) of NHFs and H35s treated with TGF-β1): inhibited self-sorting | Toroid Power [4, 6]: 0.45 ± 0.08 pJ/h | cell power [4, 6]: 0.022 ± 0.004 fJ/h | change in H35 power compared to untreated controls ([4]; homotypic H35 toroids treated with TGF-β1): doubled | Toroid Power ([4]; homotypic toroid 100% H35^TGF-β): 0.45 pJ/h | Enhancement in Toroid Power ([4]; homotypic toroid 100% H35^TGF-β versus control): 0.19 pJ/h
